Measured values reported in US20210221784A1, “COMPOUNDS AND COMPOSITIONS FOR THE TREATMENT OF PAIN” (Université de Strasbourg, priority 2018, published 2021).

System: C57BF6/N male mice
Experiment: Fentanyl-induced hyperalgesia, tail immersion test
Format: in vivo
Conditions: for Hyperalgesia index (HI) d1 to d4: 1j 5 mg/kg p.o. or vehicle 35 min before fentanyl 4×60 μg/kg s.c.

## Nc1ccc(-c2cccc(Cl)c2Cl)c(N)n1 [Compound 1j, 3-(2,3-dichlorophenyl)pyridine-2,6-diamine]
5 mg/kg sc. 20 min before fentanyl 4×60 μg/kg sc., FIG. 6B
  fentanyl hyperalgesia (hyperalgesia index d1 to d4): significant anti-hyperalgesic effect
0.2, 1 and 5 mg/kg, sc, 20 min before fentanyl, FIG. 1E, F
  development of hyperalgesia induced by fentanyl, dose effect: dose-dependently prevented
1j 5 mg/kg p.o. in Kolliphor EL or vehicle before fentanyl 4×60 μg/kg s.c., FIG. 1C
  analgesic effect of fentanyl (AUC): 11.4±3
Mus musculus, sc, doses 0.2, 1 and 5 mg/kg, FIG. 1E, read-out: ED50, prevention of fentanyl-induced hyperalgesia
  ED50: ~0.5 mg/kg
mice, tail immersion 48° C., FIG. 1A
  effect of compound alone on basal nociceptive response: did not have any effect
Vehicle Kolliphor EL
  Hyperalgesia index (HI) d1 to d4: −1.8±1.2
Vehicle tween 80
  Hyperalgesia index (HI) d1 to d4: 2.2±0.3
